Source: the supplement of paper PMC10307832

What was measured:
Experiment in all cases: relative viability (nuclei count vs DMSO), 5 days (fraction); higher = more cells survive
17-AAG + OSI-027 = compound: C=CCNC1=C2C[C@@H](C)C[C@H](OC)[C@H](O)[C@@H](C)/C=C(\C)[C@H](OC(N)=O)[C@@H](OC)/C=C\C=C(/C)C(=O)NC(=CC1=O)C2=O [17-AAG] + COc1cccc2cc(-c3nc([C@H]4CC[C@H](C(=O)O)CC4)n4ncnc(N)c34)[nH]c12 [OSI-027] (partner 0.5 µM)
Method in brief: (§1)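 Relative viability was taken as the ratio of nuclei in treated wells to nuclei in vehicle wells. Lung cancer cell lines in 1536-well plates received compounds by pin tool one day after seeding, either one drug alone or a fixed anchor-drug dose plus five library-drug doses (not always all listed) in √10 steps. Nuclei were counted on 4× images after 5 days of treatment, and values are medians of duplicate plates.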

17-AAG + Pictilisib = compound: C=CCNC1=C2C[C@@H](C)C[C@H](OC)[C@H](O)[C@@H](C)/C=C(\C)[C@H](OC(N)=O)[C@@H](OC)/C=C\C=C(/C)C(=O)NC(=CC1=O)C2=O [17-AAG] + CS(=O)(=O)N1CCN(Cc2cc3nc(-c4cccc5[nH]ncc45)nc(N4CCOCC4)c3s2)CC1 [Pictilisib] (partner 1 µM)
Method in brief: as §1

17-AAG + Palbociclib = compound: C=CCNC1=C2C[C@@H](C)C[C@H](OC)[C@H](O)[C@@H](C)/C=C(\C)[C@H](OC(N)=O)[C@@H](OC)/C=C\C=C(/C)C(=O)NC(=CC1=O)C2=O [17-AAG] + CC(=O)c1c(C)c2cnc(Nc3ccc(N4CCNCC4)cn3)nc2n(C2CCCC2)c1=O [Palbociclib] (partner 0.5 µM)
Method in brief: as §1

17-AAG + Luminespib = compound: C=CCNC1=C2C[C@@H](C)C[C@H](OC)[C@H](O)[C@@H](C)/C=C(\C)[C@H](OC(N)=O)[C@@H](OC)/C=C\C=C(/C)C(=O)NC(=CC1=O)C2=O [17-AAG] + CCNC(=O)c1noc(-c2cc(C(C)C)c(O)cc2O)c1-c1ccc(CN2CCOCC2)cc1 [Luminespib] (partner 0.01 µM)
Method in brief: as §1

Row | Cell Line | relative viability (17-AAG + OSI-027; first compound 0.00128 µM) | relative viability (17-AAG + OSI-027; first compound 0.004048 µM) | relative viability (17-AAG + OSI-027; first compound 0.0128 µM) | relative viability (17-AAG + OSI-027; first compound 0.04048 µM) | relative viability (17-AAG + OSI-027; first compound 0.128 µM) | relative viability (17-AAG + Pictilisib; first compound 0.00128 µM) | relative viability (17-AAG + Pictilisib; first compound 0.004048 µM) | relative viability (17-AAG + Pictilisib; first compound 0.0128 µM) | relative viability (17-AAG + Pictilisib; first compound 0.04048 µM) | relative viability (17-AAG + Pictilisib; first compound 0.128 µM) | relative viability (17-AAG + Palbociclib; first compound 0.00128 µM) | relative viability (17-AAG + Palbociclib; first compound 0.004048 µM) | relative viability (17-AAG + Palbociclib; first compound 0.0128 µM) | relative viability (17-AAG + Palbociclib; first compound 0.04048 µM) | relative viability (17-AAG + Palbociclib; first compound 0.128 µM) | relative viability (17-AAG + Luminespib; first compound 0.00128 µM) | relative viability (17-AAG + Luminespib; first compound 0.004048 µM) | relative viability (17-AAG + Luminespib; first compound 0.0128 µM) | relative viability (17-AAG + Luminespib; first compound 0.04048 µM) | relative viability (17-AAG + Luminespib; first compound 0.128 µM)
1 | NCI-H460 | 0.62 | 0.413 | 0.0464 | 0.0193 | 0.0168 | 0.404 | 0.462 | 0.193 | 0.0668 | 0.0737 | 0.31 | 0.117 | 0.016 | 0.0279 | 0.0159 | 0.0254 | 0.0275 | 0.0254 | 0.0299 | 0.023
2 | NCI-H2126 | 0.778 | 0.758 | 0.479 | 0.231 | 0.291 | 0.509 | 0.533 | 0.492 | 0.316 | 0.284 | 0.358 | 0.375 | 0.364 | 0.344 | 0.349 | 0.681 | 0.499 | 0.261 | 0.243 | 0.292
3 | HCC-44 | 0.54 | 0.429 | 0.229 | 0.141 | 0.116 | 0.623 | 0.564 | 0.319 | 0.152 | 0.113 | 0.944 | 1.01 | 0.991 | 0.978 | 0.914 | 0.758 | 0.663 | 0.228 | 0.217 | 0.172
4 | NCI-H520 | 0.305 | 0.268 | 0.27 | 0.202 | 0.152 | 0.275 | 0.254 | 0.207 | 0.167 | 0.161 | 0.232 | 0.228 | 0.175 | 0.153 | 0.133 | 0.236 | 0.22 | 0.227 | 0.202 | 0.188
5 | SW 1573 | 0.639 | 0.444 | 0.163 | 0.108 | 0.091 | 0.549 | 0.531 | 0.206 | 0.19 | 0.104 | 0.459 | 0.207 | 0.169 | 0.103 | 0.0788 | 0.285 | 0.168 | 0.146 | 0.12 | 0.0673
6 | NCI-H441 | 0.581 | 0.429 | 0.203 | 0.19 | 0.137 | 0.582 | 0.334 | 0.285 | 0.216 | 0.124 | 0.283 | 0.166 | 0.108 | 0.116 | 0.107 | 0.278 | 0.197 | 0.196 | 0.181 | 0.17
7 | EKVX | 0.77 | 0.649 | 0.746 | 0.177 | 0.152 | 0.43 | 0.472 | 0.528 | 0.142 | 0.101 | 0.357 | 0.391 | 0.363 | 0.152 | 0.127 | 0.879 | 0.857 | 0.742 | 0.187 | 0.13
8 | NCI-H1734 | 0.602 | 0.709 | 0.415 | 0.263 | 0.144 | 0.447 | 0.468 | 0.361 | 0.205 | 0.151 | 0.366 | 0.402 | 0.369 | 0.303 | 0.175 | 0.197 | 0.18 | 0.167 | 0.143 | 0.16
9 | ABC-1 | 0.393 | 0.493 | 0.56 | 0.508 | 0.458 | 0.794 | 0.777 | 0.829 | 0.81 | 0.651 | 0.701 | 0.805 | 0.772 | 0.79 | 0.602 | 0.439 | 0.758 | 0.565 | 0.38 | 0.238
10 | EPLC-272H | 0.275 | 0.277 | 0.247 | 0.145 | 0.112 | 0.291 | 0.32 | 0.291 | 0.169 | 0.168 | 0.34 | 0.323 | 0.348 | 0.147 | 0.0684 | 0.191 | 0.231 | 0.201 | 0.173 | 0.0978
11 | NCI-H2347 | 0.323 | 0.395 | 0.464 | 0.241 | 0.201 | 0.671 | 0.478 | 0.508 | 0.717 | 0.43 | 0.45 | 0.446 | 0.397 | 0.317 | 0.322 | 0.62 | 0.278 | 0.274 | 0.299 | 0.374
12 | NCI-H1792 | 0.691 | 0.765 | 0.619 | 0.574 | 0.273 | 0.326 | 0.308 | 0.253 | 0.171 | 0.143 | 0.592 | 0.635 | 0.542 | 0.459 | 0.278 | 0.351 | 0.418 | 0.255 | 0.268 | 0.213
13 | NCI-H1993 | 0.586 | 0.636 | 0.593 | 0.394 | 0.41 | 0.797 | 0.806 | 0.667 | 0.6 | 0.638 | 0.704 | 0.622 | 0.813 | 0.373 | 0.296 | 0.919 | 0.625 | 0.516 | 0.273 | 0.423
14 | NCI-H647 | 0.585 | 0.553 | 0.187 | 0.0899 | 0.0977 | 0.454 | 0.253 | 0.0973 | 0.15 | 0.106 | 0.414 | 0.284 | 0.102 | 0.0567 | 0.0782 | 0.128 | 0.122 | 0.098 | 0.109 | 0.0989
15 | NCI-H1793 | 0.252 | 0.234 | 0.156 | 0.124 | 0.125 | 0.309 | 0.172 | 0.193 | 0.188 | 0.144 | 0.345 | 0.295 | 0.208 | 0.14 | 0.17 | 0.191 | 0.149 | 0.136 | 0.16 | 0.169
16 | NCI-H1395 | 0.634 | 0.619 | 0.467 | 0.377 | 0.277 | 0.659 | 0.614 | 0.381 | 0.354 | 0.435 | 0.632 | 0.61 | 0.532 | 0.373 | 0.384 | 0.638 | 0.535 | 0.329 | 0.359 | 0.331
17 | HCC-827 | 0.826 | 0.785 | 0.728 |  | 0.394 | 1.21 | 1.03 | 0.923 |  | 1.02 | 0.47 | 0.463 | 0.499 |  | 0.325 | 0.579 | 0.706 | 0.652 |  | 0.291
18 | ChaGo-K-1 | 0.514 | 0.71 | 0.51 | 0.24 | 0.16 | 0.759 | 0.801 | 0.7 | 0.477 | 0.26 | 0.956 | 0.922 | 0.768 | 0.938 | 0.703 | 0.577 | 0.627 | 0.442 | 0.199 | 0.181
19 | NCI-H2228 | 0.583 | 0.265 | 0.104 | 0.0876 | 0.0979 | 0.346 | 0.153 | 0.128 | 0.148 | 0.102 | 0.672 | 0.483 | 0.131 | 0.101 | 0.107 | 0.124 | 0.102 | 0.11 | 0.157 | 0.107
20 | NCI-H2170 | 0.652 | 0.585 | 0.385 | 0.187 | 0.118 | 0.279 | 0.284 | 0.167 | 0.153 | 0.175 | 0.397 | 0.385 | 0.324 | 0.192 | 0.115 | 0.696 | 0.502 | 0.374 | 0.137 | 0.151
21 | EMC-BAC-2 | 0.464 | 0.486 | 0.438 | 0.3 | 0.216 | 0.605 | 0.598 | 0.586 | 0.274 | 0.202 | 0.544 | 0.525 | 0.521 | 0.462 | 0.4 | 1.14 | 1.06 | 0.565 | 0.268 | 0.248
22 | NCI-H23 | 0.623 | 0.646 | 0.365 | 0.179 | 0.121 | 0.468 | 0.517 | 0.224 | 0.179 | 0.145 | 0.503 | 0.456 | 0.292 | 0.192 | 0.14 | 0.242 | 0.208 | 0.19 | 0.206 | 0.202
23 | SK-LU-1 | 0.342 | 0.17 | 0.102 | 0.0747 | 0.0783 | 0.558 | 0.374 | 0.199 | 0.127 | 0.141 | 0.441 | 0.469 | 0.295 | 0.272 | 0.204 | 0.215 | 0.174 | 0.176 | 0.177 | 0.15
24 | NCI-H358 | 0.768 | 0.41 | 0.0521 | 0.0586 | 0.0417 | 0.392 | 0.219 | 0.125 | 0.131 | 0.126 | 0.171 | 0.0944 | 0.0747 | 0.0677 | 0.079 | 0.273 | 0.235 | 0.121 | 0.0893 | 0.0737
25 | LC-2-ad | 0.699 | 0.542 | 0.426 | 0.301 | 0.241 | 0.567 | 0.617 | 0.123 | 0.124 | 0.0943 | 0.553 | 0.53 | 0.494 | 0.486 | 0.172 | 0.949 | 0.83 | 0.305 | 0.302 | 0.258
26 | HCC-15 | 0.628 | 0.54 | 0.179 | 0.107 | 0.106 | 0.73 | 0.774 | 0.508 | 0.187 | 0.121 | 0.693 | 0.687 | 0.429 | 0.31 | 0.149 | 0.301 | 0.23 | 0.131 | 0.128 | 0.102
27 | NCI-H3122 | 0.713 | 0.169 | 0.126 | 0.12 | 0.114 | 0.489 | 0.375 | 0.195 | 0.194 | 0.161 | 0.194 | 0.155 | 0.19 | 0.0911 | 0.117 | 0.099 | 0.059 | 0.0637 | 0.0599 | 0.096
